Measurements as given in patent US5700679A, “Lipid vesicles having a bilayer containing a surfactant with anti-viral and spermicidal activity” (priority 1996, dated 1997).

Legend:
[1] = test system: spermatozoa (human semen); assay: Sander-Cramer Spermicidal Assay; format: cell-based; settings: highest dilution that immobilizes spermatozoa in less than 20 seconds; NP9 concentration 10 mg/mL in DMSO
Description: In this Example, the preparation of Example 1 was tested for spermicidal activity using the Sander-Cramer spermicidal assay. A series of dilutions of the test compound are prepared using 0.9% saline. 1 mL of test article is mixed with 0.2 mL of human semen in a […] by drawing the mixture into a pipet and forcibly expressing the mixture. This procedure is repeated 6 times. A hanging drop of the mixture is prepared and five fields are observed under low power magnification. The whole process from mixing to microscopic observation must be accomplished in less than 20 seconds. The end point is the highest dilution that immobilizes spermatozoa in less than 20 seconds.

[2] = test system: spermatozoa; settings: cited from earlier work

Row | Substance | Highest Spermicidal Dilution [1] | spermicidal properties (in words) [2]
1 | poly(ethylene glycol) p-nonylphenyl ether [NP9 Control] | 91 | 
2 | polyethylene glycol p-isooctylphenyl ether [TRITON-X] |  | some spermicidal properties
